Experiments:
[1] = target: Hedgehog acyltransferase (Hhat) (Homo sapiens, UniProt Q5VTY9, Y351A); test: in vitro Shh peptide palmitoylation by purified Y351A Hhat; assay type: biochemical
[2] = target: Hedgehog acyltransferase (Hhat) (Homo sapiens, UniProt Q5VTY9); test: NBD-palmitoyl-CoA uptake into liposomes with purified Hhat; assay type: biochemical
Hedgehog acyltransferase (Hhat) (Homo sapiens, UniProt Q5VTY9), sequence (Q5VTY9 whole entry): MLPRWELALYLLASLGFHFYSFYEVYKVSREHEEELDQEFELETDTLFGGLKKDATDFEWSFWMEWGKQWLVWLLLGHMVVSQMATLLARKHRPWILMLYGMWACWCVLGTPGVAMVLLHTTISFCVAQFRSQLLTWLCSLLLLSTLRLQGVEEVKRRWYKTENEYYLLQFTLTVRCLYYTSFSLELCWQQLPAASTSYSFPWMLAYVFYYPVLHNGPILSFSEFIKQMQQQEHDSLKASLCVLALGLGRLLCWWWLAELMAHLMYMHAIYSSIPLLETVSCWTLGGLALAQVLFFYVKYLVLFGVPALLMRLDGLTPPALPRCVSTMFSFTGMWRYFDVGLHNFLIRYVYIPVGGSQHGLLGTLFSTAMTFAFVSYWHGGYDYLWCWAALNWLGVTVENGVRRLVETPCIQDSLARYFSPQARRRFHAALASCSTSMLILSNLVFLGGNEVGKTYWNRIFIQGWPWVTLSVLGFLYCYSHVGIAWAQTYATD

Hedgehog acyltransferase (Hhat) (Homo sapiens, UniProt Q5VTY9, Y351A), sequence (Q5VTY9 whole entry Y351A): as the sequence (Q5VTY9 whole entry) above, with Y351A counted along it

Molecule | in vitro Shh peptide palmitoylation by purified Y351A Hhat [1] | IC50 [2]
CC(C)(COP(=O)(O)OP(=O)(O)OC[C@H]1O[C@@H](n2cnc3c(N)ncnc32)[C@H](O)[C@@H]1OP(=O)(O)O)[C@@H](O)C(=O)NCCC(=O)NCCSC(=O)CCCCCCCCCCCCCCCI [[125I] IodoPalmitoyl-CoA] | Y351A retained near-WT levels of Shh palmitoylation activity when assayed in vitro using detergent-solubilized membranes and as a purified enzyme | 
TDI-3410 |  | 2450 nM

— article PMC6948154 (Cell reports, 2019)
